In the CheMixHub viscosity set:
Several values for one entry are separate records, joined by “and”; a condition that tells them apart may be missing. Equal values may be shown once. ± gives the uncertainty stated by the source.

Test: xn = mol fraction of the nth substance listed

CCCCOC(C)=O + C1CCCCC1
viscosity [mPa·s], 101 kPa
Settings | 298.15 K | 308.15 K
x1 = 0.0561 | 0.854 ± 0.086 | 0.723 ± 0.073
x1 = 0.156 | 0.801 ± 0.081 | 0.676 ± 0.068
x1 = 0.2818 | 0.749 ± 0.075 | 0.631 ± 0.063
x1 = 0.4867 | 0.693 ± 0.07 | 0.585 ± 0.059
x1 = 0.4963 | 0.691 ± 0.069 | 0.584 ± 0.059
x1 = 0.5327 | 0.685 ± 0.069 | 0.579 ± 0.058
x1 = 0.5738 | 0.678 ± 0.068 | 0.575 ± 0.058
x1 = 0.6816 | 0.667 ± 0.067 | 0.568 ± 0.057
x1 = 0.7552 | 0.663 ± 0.067 | 0.568 ± 0.057
x1 = 0.8686 | 0.663 ± 0.067 | 0.575 ± 0.058
x1 = 0.9568 | 0.669 ± 0.067 | 0.586 ± 0.059

CCCN + C1CCCCC1
viscosity, 101 kPa
Settings | x1 = 0.00761 | x1 = 0.01688 | x1 = 0.02821 | x1 = 0.03652 | x1 = 0.04831 | x1 = 0.05697 | x1 = 0.06516 | x1 = 0.07467 | x1 = 0.08588
303.15 K | 0.8113 ± 0.0056 mPa·s | 0.8039 ± 0.0055 mPa·s | 0.7953 ± 0.0055 mPa·s | 0.789 ± 0.0055 mPa·s | 0.7803 ± 0.0054 mPa·s | 0.7736 ± 0.0054 mPa·s | 0.7669 ± 0.0053 mPa·s | 0.7583 ± 0.0053 mPa·s | 0.7506 ± 0.0053 mPa·s
313.15 K | 0.7093 ± 0.005 mPa·s and 0.6999 ± 0.005 mPa·s | 0.6903 ± 0.0049 mPa·s | 0.6849 ± 0.0049 mPa·s | 0.6772 ± 0.0049 mPa·s | 0.67 ± 0.0048 mPa·s | 0.6638 ± 0.0048 mPa·s | 0.6564 ± 0.0048 mPa·s | 0.6488 ± 0.0047 mPa·s | –

Oc1ccccc1Cl + C1CCCCC1
viscosity [mPa·s], 303.15 K
Settings | x2 = 0.1078 | x2 = 0.2025 | x2 = 0.3072 | x2 = 0.4048 | x2 = 0.6046 | x2 = 0.6564 | x2 = 0.7542 | x2 = 0.8969
101 kPa | 2.275 ± 0.034 | 1.996 ± 0.03 | 1.622 ± 0.025 | 1.331 ± 0.02 | 1.032 ± 0.016 | 0.981 ± 0.015 | 0.881 ± 0.013 | 0.795 ± 0.012
101.33 kPa | 2.275 ± 0.059 | 1.996 ± 0.052 | 1.622 ± 0.042 | 1.331 ± 0.034 | 1.032 ± 0.027 | 0.981 ± 0.025 | 0.881 ± 0.023 | 0.794 ± 0.021

CCCCOC(C)=O + C1COCCO1
303.15 K, 101.3 kPa
Settings | viscosity [mPa·s]
x2 = 0.1002 | 0.6618 ± 0.0045
x2 = 0.1988 | 0.682 ± 0.0046
x2 = 0.2997 | 0.7051 ± 0.0047
x2 = 0.3963 | 0.7333 ± 0.0048
x2 = 0.4977 | 0.7684 ± 0.005
x2 = 0.6024 | 0.809 ± 0.0052
x2 = 0.7009 | 0.859 ± 0.0055
x2 = 0.7968 | 0.9174 ± 0.0058
x2 = 0.9016 | 0.9976 ± 0.0063

Oc1ccccc1Cl + C1COCCO1
101 kPa
Settings | viscosity [mPa·s]
298.15 K, x1 = 0.2 | 1.965 ± 0.12
298.15 K, x1 = 0.4 | 3.235 ± 0.064
298.15 K, x1 = 0.6 | 5.018 ± 0.05
298.15 K, x1 = 0.8 | 5.556 ± 0.085
308.15 K, x2 = 0.1 | 2.996 ± 0.037
308.15 K, x2 = 0.2 | 3.489 ± 0.043
308.15 K, x2 = 0.4 | 3.32 ± 0.041
308.15 K, x2 = 0.5 | 2.866 ± 0.035
308.15 K, x2 = 0.6 | 2.311 ± 0.029
308.15 K, x2 = 0.7 | 1.849 ± 0.023
308.15 K, x2 = 0.8 | 1.478 ± 0.019
308.15 K, x2 = 0.9 | 1.182 ± 0.015

CCCN + C=C(C)C(=O)OC
303.15 K, 101 kPa
Settings | viscosity [mPa·s]
x2 = 0.1506 | 0.382 ± 0.0051
x2 = 0.3776 | 0.4355 ± 0.0054
x2 = 0.5053 | 0.4623 ± 0.0055
x2 = 0.6058 | 0.4809 ± 0.0056
x2 = 0.8285 | 0.5081 ± 0.0057

CCCCOC(C)=O + CC#N
303.15 K, 101.33 kPa
Settings | viscosity [mPa·s]
x2 = 0.0981 | 0.6208 ± 0.0044
x2 = 0.2003 | 0.5981 ± 0.0043
x2 = 0.3003 | 0.5737 ± 0.0042
x2 = 0.403 | 0.5485 ± 0.0041
x2 = 0.5026 | 0.5195 ± 0.004
x2 = 0.5972 | 0.4884 ± 0.0039
x2 = 0.6977 | 0.4463 ± 0.0037
x2 = 0.7987 | 0.4071 ± 0.0035
x2 = 0.8985 | 0.3669 ± 0.0034

CCCOC(=O)c1ccccc1 + CC#N
viscosity [mPa·s], 101.33 kPa
Settings | x1 = 0.127 | x1 = 0.247 | x1 = 0.362 | x1 = 0.467 | x1 = 0.567 | x1 = 0.658 | x1 = 0.748 | x1 = 0.842 | x1 = 0.928
293.15 K | 0.439 ± 0.005 | 0.48 ± 0.005 | 0.544 ± 0.005 | 0.614 ± 0.006 | 0.755 ± 0.006 | 0.879 ± 0.007 | 1.113 ± 0.008 | 1.522 ± 0.009 | 2.048 ± 0.012
303.15 K | 0.397 ± 0.005 | 0.43 ± 0.005 | 0.484 ± 0.005 | 0.54 ± 0.005 | 0.654 ± 0.006 | 0.749 ± 0.006 | 0.929 ± 0.007 | 1.237 ± 0.008 | 1.609 ± 0.01
313.15 K | 0.362 ± 0.005 | 0.386 ± 0.005 | 0.431 ± 0.005 | 0.479 ± 0.005 | 0.57 ± 0.005 | 0.652 ± 0.006 | 0.786 ± 0.006 | 1.025 ± 0.007 | 1.307 ± 0.008
323.15 K | 0.326 ± 0.005 | 0.346 ± 0.005 | 0.386 ± 0.005 | 0.424 ± 0.005 | 0.499 ± 0.005 | 0.564 ± 0.005 | 0.67 ± 0.006 | 0.853 ± 0.006 | 1.075 ± 0.007
